Measured values published in patent US4380512A, “2β-Chloromethyl-2α-methylpenam-3α-carboxylic acid sulfone and salts and esters thereof” (Bristol-Myers Company, priority 1981, dated 1983).
Read-outs that look alike come from different tables or passages of the source.

Assays:
Storage stability = format: physicochemical; conditions: 23° C., seven days
Hygroscopicity = format: physicochemical; conditions: solid
B. thetaiotaomicron = assay: Anti-Bacteroides activity, MIC by agar dilution (Table 2); format: cell-based; conditions: A22279, beta-lactamase +
Method: *Minimum inhibitory concentration (MIC) determined by the agar dilution
method using 50X dilutions of 24 hour cultures as inocula dispensed by th
Steer's inoculator. Assay medium composed of Brucella Agar plus 5% laked
sheep blood and 10 mcg/ml vitamin K.

Bacteroides species = assay: as above; format: cell-based
[1] = Blood levels after oral administration to mice (Table 4); format: in vivo; conditions: 100 mg/kg oral, 15 min, assay S. aureus A-9606
in vivo [2] = conditions: mouse, po, 38 mg/kg
Text: Compounds were solubilized in propylene glycol, except for the Hetacillin

C. freundii = assay: Antibacterial activity of ceforanide alone and with BL-P2013, MIC (Table 11); format: cell-based; conditions: Citrobacter freundii; 1 strain; read-out: MIC
Text: (§1) ^a Geometric mean value where applicable.

Citrobacter sp. = assay: as above; format: cell-based; conditions: 1 strain, read-out: MIC
Text: as §1

E. aerogenes = assay: as above; format: cell-based; conditions: Klebsiella aerogenes, read-out: MIC
Text: as §1

M. morganii = assay: as above; format: cell-based; conditions: 8 strains (second line), geometric mean
Text: as §1

P. aeruginosa = assay: as above; format: cell-based; conditions: Pseudomonas aeruginosa; 16 strains, geometric mean; read-out: MIC
Text: as §1

P. stuartii = assay: as above; format: cell-based; conditions: Providencia stuartii
Text: as §1

S. marcescens = assay: as above; format: cell-based; conditions: geometric mean
Text: as §1

E. coli A9675 = assay: Therapeutic efficacy of BL-P2043, BL-P2044 and components, oral, infected mice (Table 13); format: in vivo; conditions: Escherichia coli, A9675, po, read-out: PD50/Treatment
[3] = system: β-lactamase-producing bacteria; assay: Protection of ceforanide and amoxicillin from destruction; conditions: in vitro and in vivo, in combination
[4] = mouse, in vivo, po, 38 mg/kg
in vivo [5] = conditions: mouse, po, 38 mg/kg; remark: listed apart in the source

## CC1(CCl)C(C(=O)O)N2C(=O)CC2S1(=O)=O (stereo not drawn) [BL-P2013 Free Acid, 2β-chloromethyl-2α-methylpenam-3α-carboxylic acid sulfone]
Storage stability
  stability on storage: unstable when stored at 23 °C for seven days
Hygroscopicity
  hygroscopicity: hydroscopic

## CC1(CCl)C(C(=O)O)N2C(=O)CC2S1(=O)=O (stereo not drawn) [BL-P2013, Potassium 2β-Chloromethyl-2α-methylpenam-3α-carboxylate Sulfone]
B. thetaiotaomicron
  MIC: 63 µg/mL
Bacteroides species; A20927-1, beta-lactamase -
  MIC: 63 µg/mL
Bacteroides species; A20933, beta-lactamase +
  MIC: 63 µg/mL
[1]
  Blood Level: 4600 ng/mL
In vivo [2]
  AUC: 4400 ng·h/mL
  concentration at 0.5 h: 2300 ng/mL
  concentration at 2 h: 1600 ng/mL
C. freundii
  MIC: > 125 µg/mL
Citrobacter sp.
  MIC: 16 µg/mL
E. aerogenes; 1 strain
  MIC: 16 µg/mL
E. aerogenes; 4 strains, geometric mean
  MIC: > 125 µg/mL
E. aerogenes; 5 strains, geometric mean
  MIC: > 125 µg/mL
M. morganii
  MIC: > 125 µg/mL
P. aeruginosa
  MIC: 125 µg/mL
P. stuartii; 1 strain
  MIC: 125 µg/mL
P. stuartii; 4 strains, geometric mean
  MIC: 125 µg/mL
S. marcescens; 6 strains
  MIC: 125 µg/mL
S. marcescens; Serratia marcescens, 10 strains, read-out: MIC
  MIC: 125 µg/mL
E. coli A9675
  ED50: > 50 mg/kg
[3]
  protection of ceforanide and amoxicillin from destruction by β-lactamase-producing bacteria: protected ceforanide and amoxicillin from destruction by β-lactamase-producing bacteria in vitro and in vivo
[4]; 0.5 h
  Blood Level: 1800 ng/mL
[4]; 1 h
  Blood Level: 1400 ng/mL
In vivo [5]; AUC
  AUC: 4400 ng·h/mL
In vivo [5]; Blood Level
  concentration at 0.5 h: 2300 ng/mL
